Results on 7 molecules are retold here after publication PMC9221509, “Discovery of a Novel Antimicrobial Peptide, Temporin-PKE, from the Skin Secretion of Pelophylax kl. esculentus, and Evaluation of Its Structure-Activity Relationships” (Biomolecules, 2022).

Assay [1] concerns P. aeruginosa (B004 V2S2 B). Briefly: microbe, parasite or virus in culture. Format: cell-based, Pseudomonas aeruginosa. The note with it: B004 V2S2 B; for MBC: 18 h; for MIC: 24 h. How it is done: (§1) The antimicrobial activities of peptides were evaluated against the Gram-positive bacteria, S. aureus (ATCC 6538), methicillin-resistant Staphylococcus aureus (MRSA) (NCTC 12493), Enterococcus faecalis (E. faecalis) (NCTC 12697); the Gram-negative bacteria, E. coli (ATCC CRM 8739), Klebsiella pneumoniae (K. pneumoniae) (ATCC 43816), Pseudomonas aeruginosa (P. aeruginosa) (ATCC CRM 9027); and the yeast, Candida albicans (C. albicans) (ATCC CRM 10231). Clinical isolates of MRSA (B042 V2E1 A), E. coli (ATCC BAA-2340), K. pneumoniae (ATCC BAA-1705), and P. aeruginosa (B004 V2S2 B) were also used to determine their antimicrobial activities. The suspension of microorganisms in the logarithmic growth phase with a specific final density (Gram-negative and Gram-positive bacteria: 5 × 10^5 CFU/mL; yeast: 1 × 10^6 CFU/mL) was incubated with different peptide concentrations from 1 µM to 512 µM at 37 °C for 24 h. PBS was used as the negative control, and norfloxacin and amphotericin B were selected as the positive control for bacteria and yeast, respectively. Since the Norfloxacin had weak activities against P. aeruginosa (B004 V2S2 B) and K. pneumoniae (ATCC BAA 1705), gentamicin was used as the positive control for these two bacterial strains. The absorbance of each well was obtained using a microplate reader (EL808, Biolise BioTek, Winooski, VT, USA) set at 550 nm wavelength. The MIC value was the lowest concentration of a peptide that inhibits visible bacterial growth. Once the MIC values were determined, an aliquot from the bacterial culture exposed to the peptide at or above its MIC value was inoculated on a Mueller Hinton agar (MHA) and was incubated at 37 for 18 h. The MBC value was the lowest concentration of a peptide that kills 99.9% of bacteria.

For assay [2], the system named is P. aeruginosa (ATCC CRM 9027). As to the kind of experiment: microbe, parasite or virus in culture. Format: cell-based, Pseudomonas aeruginosa. To be noted: for MBC: ATCC CRM 9027, 18 h; for MIC: ATCC CRM 9027, 24 h. As to the method: as §1
Assay [3] concerns P. aeruginosa (ATCC CRM 9027) biofilm. Format: cell-based, Pseudomonas aeruginosa. To be noted: ATCC CRM 9027, 24 h. How it is done:
(§2) The anti-biofilm activities of the peptides against S. aureus (ATCC 6538), MRSA (NCTC 12493), E. faecalis (NCTC 12697), E. coli (ATCC CRM 8739), K. pneumoniae (ATCC 43816), and P. aeruginosa (ATCC CRM 9027), were evaluated. For the MBIC assay, 99 µL of bacterial suspension (5 × 10^5 CFU/mL) was mixed with 1 µL of serial dilutions (from 100 µM to 51,200 µM) of temporin-PKE and its analogues in a 96-well plate, and the plate was incubated in a moist shaking incubator at a speed of 200 rpm at 37 °C for 24 h. For the MBEC assay, 100 µL of bacterial suspension (5 × 10^5 CFU/mL) in each well was seeded in a new 96-well plate, and the plate was put into the same shaking incubator for 24 h incubation to allow biofilm formation on the well. After biofilm formation, the biofilm in the plate was washed with PBS twice. The PBS was aspirated between washes to remove planktonic bacterial cells. The washed biofilm in each well was treated with 100 µL of serial dilutions (from 1 µM to 512 µM) of the test peptides. Then, the plate was incubated in the same shaking incubator for another 24 h. After being washed by PBS twice and fixed with methanol, the biofilm in each well was incubated with 100 µL of 0.1% crystal violet for 30 min, and the stained biofilm was dissolved in 100 µL of glacial acidic acid after drying. The solutions were transferred to a new microplate, and the absorbance of each well was measured using a microplate reader (EL808, Biolise BioTek, Winooski, VT, USA) set to 595 nm wavelength. The MBIC was the minimum concentration of the peptide showing no biofilm formation. The MBEC is the lowest concentration of the peptide capable of eradicating the mature biofilms, which had no biofilm in the well.

A further assay concerns E. coli (ATCC BAA-2340). Briefly: microbe, parasite or virus in culture. Format: cell-based, Escherichia coli. The note with it: for MBC: ATCC BAA-2340, 18 h; for MIC: ATCC BAA-2340, 24 h. As to the method: as §1
The next assay has as its system E. coli (ATCC CRM 8739). As to the kind of experiment: microbe, parasite or virus in culture. Format: cell-based, Escherichia coli. To be noted: for MBC: ATCC CRM 8739, 18 h; for MIC: ATCC CRM 8739, 24 h. How it is done: as §1
Assay [4] has as its system MRSA (NCTC 12493) biofilm. Format: cell-based, methicillin-resistant Staphylococcus aureus. To be noted: NCTC 12493, 24 h. As to the method:
as §2

In assay [5] the test system is S. aureus (ATCC 6538) biofilm. It is filed as cell-based, Staphylococcus aureus. The note with it: ATCC 6538, 24 h. How it is done: as §2
In assay [6] the test system is E. coli (ATCC CRM 8739) biofilm. Format: cell-based, Escherichia coli. The note with it: ATCC CRM 8739, 24 h. As to the method:
as §2

Assay [7] relates to K. pneumoniae (ATCC 43816) biofilm. Format: cell-based, Klebsiella pneumoniae. The note with it: ATCC 43816, 24 h. How it is done: as §2
The next assay deals with HaCaT cells. It is filed as cell-based, human. To be noted: 24 h. How it is done:
The cytotoxicity of the peptides against the human epidermal keratinocyte line, HaCaT, was tested using the MTT cell viability assay as described in a previous study. The 100 µL of the cell suspension in a complete DMEM medium with a density of 10,000 cells/mL was seeded in a 96-well plate and incubated overnight at 37 °C in a humidified 5% CO2 atmosphere. After 4 h of starvation in a serum-free medium, 100 μL of serial dilutions (from 10^−9 M to 10^−4 M) of temporin-PKE and its analogues was added to each well, and the plate was incubated for 24 h. The serum-free medium and 0.1% Triton X-100 were used as the negative and positive control, respectively. Then, MTT solution, at a volume of 10 μL, was added to each well, and the plate was incubated for 2 h. After this, the medium was replaced by 100 μL of DMSO, and plates were put in the shaking incubator for 15 min. The absorbance of each well was measured using a microplate reader (EL808, Biolise BioTek, Winooski, VT, USA) set to a wavelength of 570 nm. The equation used to calculate the viability of the cells is shown below: Cell viability (%)=A−Ab/An−Ab×100% where A represents the absorbance of each treatment group, Ab represents the average absorbance of the wells in the blank control group (cells not exposed to the test peptide and MTT), and An represents the average absorbance of the wells in the negative control group (cells not exposed to the test peptide).

pIC50: −log10 of the molar value. Read-outs that look alike come from different tables or passages of the source. Non-standard residues stand in square brackets, D forms with d. Residues, ends and D or L forms follow the SMILES beside them. No end group written: not given here.

For `CC[C@@H](C)[C@@H](NC(=O)[C@H](CCCCN)NC(=O)[C@@H]1CCCN1C(=O)[C@H](CC(C)C)NC(=O)[C@H](CC(C)C)NC(=O)[C@H](CO)NC(=O)[C@H](CO)NC(=O)[C@H](CC(C)C)NC(=O)[C@H](C)NC(=O)CNC(=O)[C@@H](NC(=O)[C@@H](NC(=O)[C@H](CC(C)C)NC(=O)[C@@H]1CCCN1C(=O)[C@H](CC(C)C)NC(=O)[C@@H](N)Cc1ccccc1)[C@@H](C)CC)[C@@H](C)CC)C(=O)N[C@@H](Cc1ccccc1)C(N)=O` [Temporin-PKE-i] (H-FLPLIIGALSSLLPK[dI]F-NH2), the MBC (in assay [1] (read-out: MBC); in assay [2] (read-out: MBC); in the assay with E. coli (ATCC BAA-2340) (read-out: MBC); with E. coli (ATCC CRM 8739) (read-out: MBC)) was over 512 µM in each case. Besides, the MIC (in assay [1] (read-out: MIC); in assay [2] (read-out: MIC); in the assay on E. coli (ATCC BAA-2340) (read-out: MIC); with E. coli (ATCC CRM 8739) (read-out: MIC)) was over 512 µM each time. Besides, the MBIC was over 512 µM in assay [3]; 2 µM in assay [4]; 2 µM in assay [5]; over 512 µM in assay [6]; over 512 µM in [7]. In the assay on HaCaT cells, this molecule showed a pIC50 of 4.92.
Regarding FLPKIIGKLSSKLPKIF-NH2 [Temporin-PKE-4K], the MBC came to 32 µM in [1], 64 µM in assay [2], 64 µM in the assay with E. coli (ATCC BAA-2340) (read-out: MBC) and 4 µM against E. coli (ATCC CRM 8739). For the same molecule, the MIC in assay [1] was found to be 32 µM; in [2], 64 µM; in the assay with E. coli (ATCC BAA-2340) (read-out: MIC), 32 µM; against E. coli (ATCC CRM 8739), 4 µM. The MBIC in assay [3] stood at 128 µM; in [4] it was 32 µM; in assay [5], 32 µM; in assay [6] it was 128 µM; in assay [7], 256 µM. In the assay on HaCaT cells, this molecule had a pIC50 of 3.60.
With `CC[C@@H](C)[C@@H](NC(=O)[C@H](CCCCN)NC(=O)[C@@H]1CCCN1C(=O)[C@H](CC(C)C)NC(=O)[C@H](CC(C)C)NC(=O)[C@H](CO)NC(=O)[C@H](CO)NC(=O)[C@H](CC(C)C)NC(=O)[C@H](C)NC(=O)CNC(=O)[C@H](NC(=O)[C@H](NC(=O)[C@H](CC(C)C)NC(=O)[C@@H]1CCCN1C(=O)[C@H](CC(C)C)NC(=O)[C@@H](N)Cc1ccccc1)[C@H](C)CC)[C@H](C)CC)C(=O)N[C@@H](Cc1ccccc1)C(N)=O` [Temporin-PKE-3i] (H-FLPL[dI][dI]GALSSLLPK[dI]F-NH2), the MBC (in [1] (read-out: MBC); in assay [2] (read-out: MBC); in the assay with E. coli (ATCC BAA-2340) (read-out: MBC); with E. coli (ATCC CRM 8739) (read-out: MBC)) was over 512 µM in each case. Further, the MIC (in assay [1] (read-out: MIC); in assay [2] (read-out: MIC); with E. coli (ATCC BAA-2340) (read-out: MIC); in the assay with E. coli (ATCC CRM 8739) (read-out: MIC)) was over 512 µM throughout. For the same molecule, the MBIC in assay [3] is over 512 µM; in assay [4] it was 64 µM; in assay [5], 64 µM; in assay [6], over 512 µM; in assay [7] it was over 512 µM. In addition, in the assay with HaCaT cells, the pIC50 is 3.30.
In the case of “FLPLIIGALSSKLPKIF-NH2 [Temporin-PKE-K12]”, the MBC is 64 µM in assay [1], 256 µM in assay [2], 16 µM against E. coli (ATCC BAA-2340) and 8 µM against E. coli (ATCC CRM 8739). Also, the MIC in assay [1] was determined as 64 µM; in assay [2], 256 µM; against E. coli (ATCC BAA-2340), 16 µM; with E. coli (ATCC CRM 8739), 8 µM. In addition, the MBIC in [3] is over 512 µM; in [4], 4 µM; in [5], 4 µM; in [6], 64 µM; in [7], 512/>512 μM. The negative logarithm of the IC50 (pIC50) in the assay on HaCaT cells was 4.72.
On to FLPLIIGKLSSLLPKIF-NH2 [Temporin-PKE-2K], for which the MBC is 32 µM in [1], 256 µM in assay [2] (read-out: MBC), 8 µM in the assay on E. coli (ATCC BAA-2340) and 4 µM in the assay with E. coli (ATCC CRM 8739). Further, the MIC in assay [1] was 32 µM; in [2] (read-out: MIC), 128 µM; against E. coli (ATCC BAA-2340), 8 µM; against E. coli (ATCC CRM 8739) it was 4 µM. Moreover, the MBIC in assay [3] was over 512 µM; in assay [4], 2 µM; in [5], 2 µM; in [6], 64 µM; in [7], 128 µM. Also, the negative-log IC50 (pIC50) in the assay with HaCaT cells was 5.04.
Consider FLPLIIGALSSLLPKIF-NH2 [Temporin-PKE], for which the MBC (in [1] (read-out: MBC); in assay [2] (read-out: MBC); in the assay with E. coli (ATCC BAA-2340) (read-out: MBC); in the assay with E. coli (ATCC CRM 8739) (read-out: MBC)) was over 512 µM throughout. In addition, the MIC (in assay [1] (read-out: MIC); in assay [2] (read-out: MIC); with E. coli (ATCC BAA-2340) (read-out: MIC); with E. coli (ATCC CRM 8739) (read-out: MIC)) was over 512 µM throughout. The MBIC was over 512 µM in [3]; 4 µM in assay [4]; 2 µM in assay [5]; over 512 µM in [6]; over 512 µM in assay [7]. The molecule also showed a pIC50 with HaCaT cells of 5.30.
As for FLPKIIGKLSSLLPKIF-NH2 [Temporin-PKE-3K], the MBC in [1] is 8 µM; in assay [2] it was 16 µM; against E. coli (ATCC BAA-2340), 2 µM; with E. coli (ATCC CRM 8739), 2 µM. Besides, the MIC was found to be 8 µM in assay [1], 16 µM in [2], 2 µM in the assay with E. coli (ATCC BAA-2340) and 2 µM in the assay with E. coli (ATCC CRM 8739). The MBIC in [3] came to 64 µM; in assay [4], 2 µM; in assay [5] it was 2 µM; in [6], 16 µM; in assay [7], 32 µM. In addition, in the assay with HaCaT cells, the pIC50 is 4.53.
